Measurements: PubChem BioAssay AID2060483 (Molecular Pharmacology Branch, DTP, NCI, 2025)
One block for each compound: values may come before it.

System: K24384-001-R-PDC complex spheroids, viability
Assay: Anticancer human tumor K24384-001-R-PDC patient-derived pancreatic adenocarcinoma cell line growth inhibition [GQUAD]
Settings: for IC50: curve of first compound; for viability, T/C: stronger effect = lower value
How it was run: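 Multi-cell-type spheroids of tumor cells with HUVEC and mesenchymal stem cells, treated with drug combinations. Concentrations descend in half-log steps from near clinical Cmax, or from 10 microM where Cmax is unknown; viability read-out.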

[1] = second compound 0.0316 µM, first compound 0.0316 µM
[2] = second compound 0.0316 µM, first compound 0.1 µM
[3] = second compound 0.0316 µM, first compound 0.316 µM
[4] = second compound 0.0316 µM, first compound 1 µM
[5] = second compound 0.0316 µM, first compound 3.16 µM
[6] = second compound 0.0316 µM, first compound 10 µM
[7] = second compound 0.1 µM, first compound 0.0316 µM
[8] = second compound 0.1 µM, first compound 0.1 µM
[9] = second compound 0.1 µM, first compound 0.316 µM
[10] = second compound 0.1 µM, first compound 1 µM
[11] = second compound 0.1 µM, first compound 3.16 µM
[12] = second compound 0.1 µM, first compound 10 µM
[13] = second compound 0.316 µM, first compound 0.0316 µM
[14] = second compound 0.316 µM, first compound 0.1 µM
[15] = second compound 0.316 µM, first compound 0.316 µM
[16] = second compound 0.316 µM, first compound 1 µM
[17] = second compound 0.316 µM, first compound 3.16 µM
[18] = second compound 0.316 µM, first compound 10 µM
[19] = second compound 1 µM, first compound 0.0316 µM
[20] = second compound 1 µM, first compound 0.1 µM
[21] = second compound 1 µM, first compound 0.316 µM
[22] = second compound 1 µM, first compound 1 µM
[23] = second compound 1 µM, first compound 3.16 µM
[24] = second compound 1 µM, first compound 10 µM
[25] = second compound 3.16 µM, first compound 0.0316 µM
[26] = second compound 3.16 µM, first compound 0.1 µM
[27] = second compound 3.16 µM, first compound 0.316 µM
[28] = second compound 3.16 µM, first compound 1 µM
[29] = second compound 3.16 µM, first compound 3.16 µM
[30] = second compound 3.16 µM, first compound 10 µM
[31] = second compound 10 µM, first compound 0.0316 µM
[32] = second compound 10 µM, first compound 0.1 µM
[33] = second compound 10 µM, first compound 0.316 µM
[34] = second compound 10 µM, first compound 1 µM
[35] = second compound 10 µM, first compound 3.16 µM
[36] = second compound 10 µM, first compound 10 µM
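Note: spheroids exposed to compounds for seven days.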

Compound: CC(C)(O)C1CCC(Nc2ccc3ncc(-c4cccc(C(F)(F)F)c4)n3n2)CC1 (stereo unspecified) + Cc1[nH]c2ccc(F)cc2c1-c1nc2c3cccnc3c3ncccc3c2[nH]1
- IC50 (second compound 0.0316 µM): 1630 nM
- IC50 (second compound 0.1 µM): 2030 nM
- IC50 (second compound 0.316 µM): 1930 nM
- IC50 (second compound 1 µM): 1710 nM
- IC50 (second compound 3.16 µM): 447 nM
- IC50 (second compound 10 µM): 548 nM
- viability, T/C [1]: 95.6%
- viability, T/C [2]: 104%
- viability, T/C [3]: 111%
- viability, T/C [4]: 59.3%
- viability, T/C [5]: 28.3%
- viability, T/C [6]: 46.5%
- viability, T/C [7]: 75.3%
- viability, T/C [8]: 105%
- viability, T/C [9]: 90.4%
- viability, T/C [10]: 68.1%
- viability, T/C [11]: 39.8%
- viability, T/C [12]: 33.2%
- viability, T/C [13]: 103%
- viability, T/C [14]: 97.9%
- viability, T/C [15]: 108%
- viability, T/C [16]: 73.4%
- viability, T/C [17]: 28.5%
- viability, T/C [18]: 36.6%
- viability, T/C [19]: 76.7%
- viability, T/C [20]: 99%
- viability, T/C [21]: 106%
- viability, T/C [22]: 68.8%
- viability, T/C [23]: 26.2%
- viability, T/C [24]: 30.9%
- viability, T/C [25]: 64.6%
- viability, T/C [26]: 70.4%
- viability, T/C [27]: 56.2%
- viability, T/C [28]: 32.8%
- viability, T/C [29]: 15.4%
- viability, T/C [30]: 13.8%
- viability, T/C [31]: 70.1%
- viability, T/C [32]: 85.7%
- viability, T/C [33]: 57.3%
- viability, T/C [34]: 39.4%
- viability, T/C [35]: 12.7%
- viability, T/C [36]: 14%

- IC50 (second compound 0.0316 µM): > 10000 nM
- IC50 (second compound 0.1 µM): 8780 nM
- IC50 (second compound 0.316 µM): > 10000 nM
- IC50 (second compound 1 µM): < 31.6 nM
- IC50 (second compound 3.16 µM): < 31.6 nM
- IC50 (second compound 10 µM): < 31.6 nM
Compound: C=CC(=O)N1CCN(c2nc(=O)n(-c3c(C)ccnc3C(C)C)c3nc(-c4c(O)cccc4F)c(F)cc23)C(C)C1 (stereo unspecified) + Cc1cnc(CNC(=O)c2c(=O)c3ccc(N4CCCN(C)CC4)nc3n3c2sc2ccccc23)cn1
- viability, T/C [1]: 79.5%
- viability, T/C [2]: 78.9%
- viability, T/C [3]: 92.1%
- viability, T/C [4]: 88.5%
- viability, T/C [5]: 98.4%
- viability, T/C [6]: 83.2%
- viability, T/C [7]: 54.7%
- viability, T/C [8]: 78%
- viability, T/C [9]: 53.6%
- viability, T/C [10]: 64.6%
- viability, T/C [11]: 58.8%
- viability, T/C [12]: 48.9%
- viability, T/C [13]: 48.3%
- viability, T/C [14]: 71.5%
- viability, T/C [15]: 64.3%
- viability, T/C [16]: 65.5%
- viability, T/C [17]: 70.8%
- viability, T/C [18]: 49.3%
- viability, T/C [19]: 41%
- viability, T/C [20]: 52.3%
- viability, T/C [21]: 42.5%
- viability, T/C [22]: 66.3%
- viability, T/C [23]: 59.9%
- viability, T/C [24]: 47.7%
- viability, T/C [25]: 35.3%
- viability, T/C [26]: 48.6%
- viability, T/C [27]: 39.6%
- viability, T/C [28]: 47.5%
- viability, T/C [29]: 47.5%
- viability, T/C [30]: 37.5%
- viability, T/C [31]: 20.8%
- viability, T/C [32]: 23.7%
- viability, T/C [33]: 31.4%
- viability, T/C [34]: 42%
- viability, T/C [35]: 23.3%
- viability, T/C [36]: 22.7%

Compound: CC[C@@]1(O)C(=O)OCc2c1cc1n(c2=O)Cc2cc3c(CN(C)C)c(O)ccc3nc2-1 + Cc1[nH]c2ccc(F)cc2c1-c1nc2c3cccnc3c3ncccc3c2[nH]1
- IC50 (second compound 0.0316 µM): > 316 nM
- IC50 (second compound 0.1 µM): 292 nM
- IC50 (second compound 0.316 µM): 233 nM
- IC50 (second compound 1 µM): 239 nM
- IC50 (second compound 3.16 µM): 139 nM
- IC50 (second compound 10 µM): 146 nM
- viability, T/C (second compound 0.0316 µM, first compound 0.000999 µM): 102%
- viability, T/C (second compound 0.0316 µM, first compound 0.00316 µM): 110%
- viability, T/C (second compound 0.0316 µM, first compound 0.00999 µM): 95.7%
- viability, T/C [1]: 80.9%
- viability, T/C (second compound 0.0316 µM, first compound 0.0999 µM): 61.3%
- viability, T/C [3]: 51.2%
- viability, T/C (second compound 0.1 µM, first compound 0.000999 µM): 83.5%
- viability, T/C (second compound 0.1 µM, first compound 0.00316 µM): 113%
- viability, T/C (second compound 0.1 µM, first compound 0.00999 µM): 82.4%
- viability, T/C [7]: 87.7%
- viability, T/C (second compound 0.1 µM, first compound 0.0999 µM): 65.8%
- viability, T/C [9]: 49%
- viability, T/C (second compound 0.316 µM, first compound 0.000999 µM): 85.4%
- viability, T/C (second compound 0.316 µM, first compound 0.00316 µM): 92.2%
- viability, T/C (second compound 0.316 µM, first compound 0.00999 µM): 83.1%
- viability, T/C [13]: 82.9%
- viability, T/C (second compound 0.316 µM, first compound 0.0999 µM): 68.3%
- viability, T/C [15]: 43.4%
- viability, T/C (second compound 1 µM, first compound 0.000999 µM): 95.7%
- viability, T/C (second compound 1 µM, first compound 0.00316 µM): 92.8%
- viability, T/C (second compound 1 µM, first compound 0.00999 µM): 98.8%
- viability, T/C [19]: 76.8%
- viability, T/C (second compound 1 µM, first compound 0.0999 µM): 59%
- viability, T/C [21]: 46.7%
- viability, T/C (second compound 3.16 µM, first compound 0.000999 µM): 73.8%
- viability, T/C (second compound 3.16 µM, first compound 0.00316 µM): 74.7%
- viability, T/C (second compound 3.16 µM, first compound 0.00999 µM): 79.1%
- viability, T/C [25]: 81.2%
- viability, T/C (second compound 3.16 µM, first compound 0.0999 µM): 53.6%
- viability, T/C [27]: 41%
- viability, T/C (second compound 10 µM, first compound 0.000999 µM): 78.1%
- viability, T/C (second compound 10 µM, first compound 0.00316 µM): 55%
- viability, T/C (second compound 10 µM, first compound 0.00999 µM): 66.4%
- viability, T/C [31]: 67.4%
- viability, T/C (second compound 10 µM, first compound 0.0999 µM): 58.8%
- viability, T/C [33]: 31.3%
